In article doi:10.1101/2024.08.19.608619, “Discovery of potent SARS-CoV-2 nsp3 macrodomain inhibitors uncovers lack of translation to cellular antiviral response” (bioRxiv, 2024):
Values after ≈ are worked out from the molar mass of the structure shown.

What was measured:
[1] = system: SARS-CoV-2, isolate USA-WA1/2020; assay: microbe, parasite or virus in culture; format: cell-based; settings: HeLa-ACE2 SARS-CoV-2 antiviral effect without P-gp inhibitor; for perc_max_measured: maximum measured response of dose series; for perc_min_measured: minimum measured response of dose series; for EC50: read-out: ec50; for EC90: read-out: ec90
HeLa-ACE2 cells = settings: HeLa-ACE2 cytotoxicity; for perc_max_measured: highest measured response of the dose series; for perc_min_measured: lowest measured response of the dose series
[2] = Permeability Papp (AB) MDR1/MDCKII; settings: In vitro MDR1-MDCKII permeability, no inhibitor; for papp_a_to_b_mean: A to B; for perc_recovery_a_to_b_mean: recovery A to B
[3] = In vitro kinetic solubility; settings: In vitro kinetic solubility, ph 7.4
LogD = settings: pH 7.4; In vitro LogD
[4] = Hepatic microsomal stability, MLM; format: in vitro ADME; settings: In vitro mouse liver microsomal stability; for perc_remaining_no_cofactor: no cofactor
[5] = Hepatic microsomal stability, HLM; format: in vitro ADME, human; settings: In vitro human liver microsomal stability; for perc_remaining_no_cofactor: no cofactor
in vitro = settings: human, hela-ace2 cells, 50.0

| Structure (SMILES) | perc_max_measured [1] [%] | perc_min_measured [1] [%] | EC50 [1] [µM] | EC90 [1] [µM] | perc_max_measured (HeLa-ACE2 cells) [%] | perc_min_measured (HeLa-ACE2 cells) [%] | papp_a_to_b_mean [2] [×10⁻⁶ cm/s] | perc_recovery_a_to_b_mean [2] [%] | solubility_mean [3] [µM] | logd (LogD) | clint [4] [µL/min/mg] | perc_remaining [4] [%] | t_half [4] [min] | perc_remaining_no_cofactor [4] [%] | clint [5] [µL/min/mg] | perc_remaining [5] [%] | t_half [5] [min] | perc_remaining_no_cofactor [5] [%] | CC50 (HeLa-ACE2 cells) [µM] | cc10 (HeLa-ACE2 cells) [µM] | further results |
| --- | --- | --- | --- | --- | --- | --- | --- | --- | --- | --- | --- | --- | --- | --- | --- | --- | --- | --- | --- | --- | --- |
| CCNC(=O)c1cc2c(N[C@H](c3ccc4c(c3)OCCO4)C(C)C)ncnc2[nH]1 (single isomer, unassigned) [ASAP-0013827] | 113.12 | 80.543 | > 20 | > 20 | 106.128 | 83.696 | 2.9 | 81.7 | 13 (≈ 5.14 µg/mL) | 3.6 | 72.0 | 29.0 | 23.2 | 92.0 | 1329.0 | 1.0 | 1.3 | 97.0 | – | – | – |
| CCNC(=O)c1cc2c(N[C@H](c3ccc4c(c3)OCCO4)C(C)C)ncnc2[nH]1 [ASAP-0013824] | 109.949 | 49.504 | 19.7 | > 20 | 99.37 | 90.423 | 2.7 | 94.3 | 263 (≈ 104 µg/mL) | 3.6 | 48.0 | 47.0 | 34.6 | 94.0 | 67.0 | 32.0 | 24.8 | 100.0 | > 20 | > 20.0 | – |
| C[C@@H](C(=O)O)[C@H](NC(=O)c1ncnc2[nH]ccc12)c1ccc(Br)cc1 [ASAP-0014726] | 129.968 | 44.709 | – | – | 106.212 | 72.067 | – | – | – | – | – | – | – | – | – | – | – | – | > 20 | > 20.0 | CC50 at 24 h (in vitro): > 20 µM |
| COc1ccc([C@@H](Cc2nnn[nH]2)NC(=O)c2ncnc3[nH]ccc23)cc1 [ASAP-0015384] | 136.92 | 93.837 | > 20 | > 20 | 99.805 | 83.484 | – | – | – | – | – | – | – | – | – | – | – | – | > 20 | > 20.0 | CC50 at 24 h (in vitro): > 20 µM |
